According to US9573907B2, “2, 4-pyrimidine derivatives and use thereof” (SNU R&DB FOUNDATION, priority 2009, dated 2017):
Entries after “also recorded” stand apart in the source; their conditions may differ.

The compounds below were run against interaction of gp96 and AIMP1 (Mus musculus, UniProt P08113) (assay: ELISA assay of gp96-AIMP1 interaction). Details: read-out: Inhibition rate (at 100 nM; %).
Assay type: binding, murine
Procedure: FIGS. 1 to 9 represent suppression of cell surface gp96 by GPM1 reduces DC maturation and B220^+ population in gp96tm transgenic mice. (FIG. 1) Chemical structure of GPM1 (Formula 2) and negative control (NC1, Formula 16) used in this study. (FIG. 2) The dose-dependent effect of GPM1 or NC1 on the AIMP1-gp96 interaction using ELISA method as described. The indicated concentrations of the two compounds and biotin-conjugated murine gp96 were added to AIMP1 coated on the surface of microtiter wells, and gp96 bound to AIMP1 was detected with strepavidin-conjugated peroxidase. (FIG. 3) The binding of GPM1 to gp96 was examined by surface plasmon resonance (SPR). GPM1 at the indicated concentrations was injected to immobilized gp96 and the binding was measured using Biacore 3000. The response data were processed using data from a reference surface and buffer injections. Each concentration was tested in triplicate. (FIG. 4) RAW24.7 cells were treated with 10 μM GPM1 for 24 h. Cell lysates were immunoprecipitated with control IgG or anti-gp96 antibody and the immunoprecipitated proteins were immunoblotted with anti-KDELR1, antiAIMP1 and gp96 antibodies. WCL means whole cell lysate. (FIG. 5) Splenocytes isolated from C57BL/6 mice were treated with vehicle (5% DMSO in PBS), GPM1, or NC1 (10 μM, 24 h), stained for cell surface gp96, and followed by flow cytometry. (FIG. 6) AIMP1^+/+ or AIMP1^−/− mouse splenocytes (2×10^5 cells) were treated with vehicle, GPM1, or NC1 (10 μM, 24 h), fixed, and then co-cultured with WT bone marrow-derived DCs (1×10^4 cells) for 16 h. TNFα secreted from BMDCs was quantified by ELISA. (FIG. 7) Percentage of gp96^+ MHC class II^+ cell population in splenocytes from gp96tm transgenic female mice treated with vehicle (control) (n=9), GPM1 (n=9), and dexamethasone (n=7) at 30 mg/kg. (FIG. 8) Cell surface ICOSL of CD11b^+CD11c^+ (myeloid DCs), CD11b^−CD11c^+ (lymphoid DCs), and CD11b^+CD11c^− (macrophages) cell populations in splenocytes from gp96tm transgenic female mice treated with vehicle (n=9) and GPM1 (n=9) at 30 mg/kg. (FIG. 9) Percentage of B220^+, MHC class II^+, CD4^+, CD8^+, CD4 and CD8 double negative cell populations in splenocytes from gp96tm transgenic female mice treated with vehicle (n=9), GPM1 (n=9), and dexamethasone (n=7) at 30 mg/kg. Student t-test P values comparing GPM1-treated mice with control are indicated.
96-well plates (Maxisorp., F96; Nunc) were coated with 500 ng/well AIMP1 in PBS (pH 7.4). After washing, the remaining sites were blocked with PBS containing 1% BSA for 1 h. Binding of 10 ng/well biotin-conjugated gp96 was performed in Tris buffer (25 mM Tris, 10 mM NaCl and 0.4% Triton X-100). Each of the 6,580 compounds was added to the well at 100 nM and the plates were washed and incubated with HRP conjugated streptavidin in PBS containing 0.1% BSA and 0.1% Tween 20 for 30 min. The plates were washed, and then substrate was added to each well. The absorbance was monitored at 450 nm.
To identify chemicals that can affect membrane translocation of gp96, the present inventors employed the interaction of gp96 with AIMP1 as the screening target. For this screening, the present inventors chose 6,482 chemicals with different pharmacophore representing 150,000 different chemicals deposited in Korea Chemical Bank and identified the compounds that can inhibit the interaction of the two proteins. For the screening, the present inventors set up a modified ELISA method using recombinant AIMP1 and gp96 proteins as described in Experimental methods. Each of the tested compounds gave different effect on the interaction of the two proteins (FIG. 19). And the present inventors have selected 12 compounds that inhibited the interaction more than 95% of the control at 0.1 μM (Table 1). The present inventors obtained 1251 additional compounds derived from these 12 initial hits and tested them again for their activities against the gp96-AIMP1 interaction.

Sequence of interaction of gp96 and AIMP1 (P08113 22-802): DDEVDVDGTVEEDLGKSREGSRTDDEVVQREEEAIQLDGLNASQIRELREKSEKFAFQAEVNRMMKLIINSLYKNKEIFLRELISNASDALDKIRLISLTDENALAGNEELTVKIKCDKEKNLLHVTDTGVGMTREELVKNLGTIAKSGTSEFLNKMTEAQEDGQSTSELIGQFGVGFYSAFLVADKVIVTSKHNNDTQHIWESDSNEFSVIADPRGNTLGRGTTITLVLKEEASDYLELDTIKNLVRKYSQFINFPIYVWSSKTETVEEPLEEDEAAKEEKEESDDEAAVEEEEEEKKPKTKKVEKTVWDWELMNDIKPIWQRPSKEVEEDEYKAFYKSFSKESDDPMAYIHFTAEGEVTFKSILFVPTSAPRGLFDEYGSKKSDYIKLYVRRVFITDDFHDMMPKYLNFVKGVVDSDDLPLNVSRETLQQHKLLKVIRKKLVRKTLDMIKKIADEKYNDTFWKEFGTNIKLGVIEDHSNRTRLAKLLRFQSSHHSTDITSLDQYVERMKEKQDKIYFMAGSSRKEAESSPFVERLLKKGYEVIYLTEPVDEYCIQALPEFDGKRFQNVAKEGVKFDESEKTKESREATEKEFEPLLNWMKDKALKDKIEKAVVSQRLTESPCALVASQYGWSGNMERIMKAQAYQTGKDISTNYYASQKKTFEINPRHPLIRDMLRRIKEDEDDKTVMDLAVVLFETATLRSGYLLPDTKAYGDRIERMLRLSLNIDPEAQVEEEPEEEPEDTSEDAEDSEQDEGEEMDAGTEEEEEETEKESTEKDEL

| Compound | inhibition at 0.1 µM [%] |
| --- | --- |
| COC(=O)C(C)Oc1nc(C)c(Cl)c(OC)n1 (stereo not drawn) [Formula 3, methyl 2-(5-chloro-4-methoxy-6-methylpyrimidin-2-yloxy)propanoate] | 97 |
| COC(=O)C(Oc1nc(OC)cc(OC)n1)c1ccc(Br)cc1 (stereo not drawn) [Formula 4, methyl 2-(4-bromophenyl)-2-(4,6-dimethoxypyrimidin-2-yloxy)acetate] | 94 |
| COC(=O)C(Oc1nc(OC)cc(OC)n1)C(C)C (stereo not drawn) [Formula 5, methyl 2-(4,6-dimethoxypyrimidin-2-yloxy)-3-methylbutanoate] | 82 |
| COC(=O)C(Oc1nc(OC)cc(OC)n1)c1cccs1 (stereo not drawn) [Formula 6, methyl 2-(4,6-dimethoxypyrimidin-2-yloxy)-2-(thiophen-2-yl)acetate] | 71 |
| COc1cc(OC)nc(OC(C(=O)O)c2ccccc2)n1 (stereo not drawn) [Formula 7, 2-(4,6-dimethoxypyrimidin-2-yloxy)-2-phenylacetic acid] | 99 |
| COc1cc(OC)nc(O[C@@H](C(=O)O)c2ccccc2)n1 [Formula 8, (R)-2-(4,6-dimethoxypyrimidin-2-yloxy)-2-phenylacetic acid] | 30 |
| COc1nc(OCc2ccccc2)nc(OC)c1C(N)=O [Formula 9, 2-(benzyloxy)-4,6-dimethoxypyrimidine-5-carboxamide] | 90 |
| COc1cc(OC)nc(OCc2ccccc2Cl)n1 [Formula 10, 2-(2-chlorobenzyloxy)-4,6-dimethoxypyrimidine] | 76 |
| COc1cc(OC)nc(Oc2ccncc2)n1 [Formula 11, 4,6-dimethoxy-2-(pyridin-4-yloxy)pyrimidine] | 95 |
| CC(C)(C)Oc1cc(OC(C)(C)C)nc(Oc2cccnc2)n1 [Formula 12, 4,6-di-tert-butoxy-2-(pyridin-3-yloxy)pyrimidine] | 86 |
| CC(C)(C)Oc1ncc(-c2ccccn2)c(OC(C)(C)C)n1 [Formula 13, 2,4-di-tert-butoxy-5-(pyridin-2-yl)pyrimidine] | 86 |
| Oc1nc(Oc2ccc(F)c(C(F)(F)F)c2)cc(Oc2ccc(F)c(C(F)(F)F)c2)n1 [Formula 14, 4,6-bis(4-fluoro-3-(trifluoromethyl)phenoxy)pyrimidin-2-ol] | 84 |
| COc1cc(OC)nc(Oc2cccnc2N)n1 [Formula 15, 3-(4,6-dimethoxypyrimidin-2-yloxy)pyridin-2-amine] | 54 |

The compounds below were run on HL-60 cell lines (assay: FACS analysis of gp96 on cell surface of HL-60 cell lines). Details: 1 mM, 24 hours.
Assay type: cell-based
Procedure: FIG. 35 is a graph showing an FACS analysis result using gp96 antibody, on the amount of gp96 protein existing on a cell surface, when HL-60 cell lines were treated with a 2,4-pyrimidine derivatives at a concentration of 1 mM for 24 hours.
Also, HL-60 cell lines were treated with a 2,4-pyrimidine derivative at a concentration of 1 mM for 24 hours, and the amount of gp96 protein existing on a cell surface was analyzed through flow cytometry (FACS) using gp96 antibody.

| Compound | amount of gp96 protein existing on a cell surface |
| --- | --- |
| 2-(4,6-dimethoxy-pyrimidin-2-yloxy)-N-isopropyl-3-methyl-butyl amide [KR-S-005] | better effects than KR-S-015; also recorded: better than ester (KR-S-010) or acid (KR-S-009) |
| CCN(CC)C(=O)C(Oc1nc(OC)cc(OC)n1)C(C)C (stereo not drawn) [KR-S-001, 2-(4,6-Dimethoxy-pyrimidin-2-yloxy)-N,N-diethyl-3-methyl-butyl amide] | better effects than KR-S-015; also recorded: better than ester (KR-S-010) or acid (KR-S-009) |
| COc1cc(OC)nc(OC(C(=O)N(C)OC)C(C)C)n1 (stereo not drawn) [KR-S-006, 2-(4,6-dimethoxy-pyrimidin-2-yloxy)-N-methoxy-3,N-dimethyl-butyl amide] | better effects than KR-S-015; also recorded: better than ester (KR-S-010) or acid (KR-S-009) |
| COc1cc(OC)nc(OC(C(=O)N2CCCCC2)C(C)C)n1 (stereo not drawn) [KR-S-007, 2-(4,6-dimethoxy-pyrimidin-2-yloxy)-3-methyl-1-piperidin-1-yl-butan-1-one] | better effects than KR-S-015; also recorded: better than ester (KR-S-010) or acid (KR-S-009) |
| COc1cc(OC)nc(OC(C(=O)N2CCOCC2)C(C)C)n1 (stereo not drawn) [KR-S-008, 2-(4,6-dimethoxy-pyrimidin-2-yloxy)-3-methyl-1-morpholin-4-yl-butan-1-one] | better effects than KR-S-015; also recorded: better than ester (KR-S-010) or acid (KR-S-009) |
| COc1cc(OC)nc(OC(C(=O)O)C(C)C)n1 (stereo not drawn) [KR-S-009, 2-(4,6-dimethoxy-pyrimidin-2-yloxy)-3-methyl-butyric acid] | better effects than KR-S-015 |
| COC(=O)[C@H](C)Oc1nc(OC)cc(OC)n1 [KR-S-011, L-2-(4,6-Dimethoxy-pyrimidin-2-yloxy)-propionic acid methyl ester] | better effects than KR-S-015; also recorded: better than isopropyl (KR-S-009, KR-S-010) |
| COC(=O)[C@@H](C)Oc1nc(OC)cc(OC)n1 [KR-S-012, D-2-(4,6-Dimethoxy-pyrimidin-2-yloxy)-propionic acid methyl ester] | better effects than KR-S-015; also recorded: better than isopropyl (KR-S-009, KR-S-010) |

The compounds below were run on gp96tm transgenic mice (assay: not given). Details: 2-month intraperitoneal administration, 30 mg/kg.
Procedure: Female gp96tm transgenic mice (Proc Natl Acad Sci USA. 2003 December 23; 100(26): 15824-15829) were bred and maintained at the animal center for pharmaceutical research, Seoul National University. We used age-matched, 12-26 weeks old mice in each experimental group. To suppress cell surface gp96 we used GPM1 compound. Dexamethasone and GPM1 were dissolved in 5% DMSO in phosphate-buffered saline (PBS) and control vehicle was 5% DMSO in PBS. Compounds were administered i.p. every 24 h for 2 months (30 mg/kg/day). Three groups of each 9 mice were examined. All procedures were conducted in accordance with the Guide for the Care and Use of Laboratory Animals, published by the Korean National Institute of Health.
Spleen and lymph node cell suspensions were prepared by grindling tissue through sterile mesh and erythrocytes were lysed with RBC lysis buffer (eBioscience, CA). For surface staining, antibodies were fluoresceinisothiocyanate (FITC)-, phycoerythrin (PE)-, PerCP-, or APC-conjugated. Antibodies used were CD4 (RM4-5, H129.12), CD8 (53-6,7), B220 (RA3-6B2), CD11b (M1/70), CD11c (HL3), CD44 (IM7), CD62L (MEL-14), CD69 (H1.2F3), CD25 (PC61.5), IgM (11/41), IgD (11-26C.2a) (BD Pharmingen, CA), MHC class II (M5/114.15.2), Foxp3 (FJK-16s) (eBioscience, CA), and gp96 (Santacruz, Calif.). After staining, cells were washed and analyzed on a FACS can flow cytometer using CellQuest software (BD Bioscience, Mountain View, Calif.).
Kidney tissue sections of gp96tm transgenic mice were fixed in 10% formaldehyde in PBS and dehydrated using an alcohol gradient. After paraffin infiltration, the tissues were sectioned using a microtome, stained with hematoxylin and eosin (H&E) and analyzed by light microscopy. For immunofluorescent staining, kidneys were sectioned with a cryostat. These cryosections were blocked with normal goat serum, stained with FITC-conjugated goat anti-mouse Ig (BD pharmingen, CA), and then observed by fluorescent microscopy.
The present inventors compared the effect of GPM1 with phosphate-buffered saline containing 5% DMSO and dexamethasone (Dex), an immunosuppressant of glucocorticoid family as negative and positive control, respectively. Each group consisted of age-matched nine female mice. […] After 2 month, the present inventors isolated MHC class II^+ splenocytes and lymph nodes from vehicle-, Dex-, and GPM1-treated mice and determined the portion of gp96^+ cells by flow cytometry.

| Compound | adverse effects / death during administration |
| --- | --- |
| C[C@@H]1C[C@H]2[C@@H]3CCC4=CC(=O)C=C[C@]4(C)[C@@]3(F)[C@@H](O)C[C@]2(C)[C@@]1(O)C(=O)CO [dexamethasone, reference compound] | two of nine |

Same assay, conditions: mouse, in vivo, 30 mg/kg/day

| Compound | total cell count (spleen) |
| --- | --- |
| C[C@@H]1C[C@H]2[C@@H]3CCC4=CC(=O)C=C[C@]4(C)[C@@]3(F)[C@@H](O)C[C@]2(C)[C@@]1(O)C(=O)CO [dexamethasone, reference compound] | 4.80 ± 2.38 × 10^5 |

Same assay, conditions: splenocytes, after 2 month, 30 mg/kg

| Compound | percentages of gp96+ MHC class II+ cells [%] |
| --- | --- |
| C[C@@H]1C[C@H]2[C@@H]3CCC4=CC(=O)C=C[C@]4(C)[C@@]3(F)[C@@H](O)C[C@]2(C)[C@@]1(O)C(=O)CO [dexamethasone, reference compound] | ~25 |
